Test results from the NIST ThermoML archive (doi:10.1016/j.jct.2014.07.001).
± gives the expanded uncertainty stated by the source.

Columns and labels:
[1] = Drop volume
[2] = xn = mol fraction of the nth substance listed; conditions: Drop volume

CCCC[n+]1cccc(C)c1.F[B-](F)(F)F [1-butyl-3-methylpyridinium tetrafluoroborate]
[1]
Conditions	surface tension liquid-gas [mN/m]
293.15 K	45.21 ± 0.54
303.15 K	44.48 ± 0.53
313.15 K	43.8 ± 0.52
323.15 K	43.24 ± 0.52

CCCC[n+]1ccc(C)cc1.F[B-](F)(F)F [1-butyl-4-methylpyridinium tetrafluoroborate]
[1]
Conditions	surface tension liquid-gas [mN/m]
293.15 K	45.82 ± 0.54
303.15 K	45.09 ± 0.54
313.15 K	44.41 ± 0.53
323.15 K	43.71 ± 0.52

CCCC[n+]1ccc(C)cc1.F[B-](F)(F)F [1-butyl-4-methylpyridinium tetrafluoroborate] + CO
surface tension liquid-gas [mN/m], [2]
Conditions	293.15 K	303.15 K	313.15 K	323.15 K
x1 = 0.0247	23.3 ± 0.27	22.55 ± 0.26	21.71 ± 0.25	20.88 ± 0.24
x1 = 0.0983	25.35 ± 0.29	24.66 ± 0.28	23.92 ± 0.27	23.23 ± 0.27
x1 = 0.195	27.93 ± 0.32	27.31 ± 0.31	26.68 ± 0.3	26.12 ± 0.3
x1 = 0.2914	30.53 ± 0.35	29.98 ± 0.34	29.46 ± 0.33	29.05 ± 0.33
x1 = 0.3909	33.11 ± 0.37	32.62 ± 0.37	32.2 ± 0.36	31.91 ± 0.36
x1 = 0.4915	35.62 ± 0.4	35.17 ± 0.4	34.81 ± 0.4	34.6 ± 0.39
x1 = 0.5378	36.77 ± 0.42	36.34 ± 0.41	36.02 ± 0.41	35.84 ± 0.41
x1 = 0.61	38.46 ± 0.44	38.04 ± 0.43	37.73 ± 0.43	37.57 ± 0.43
x1 = 0.6875	40.19 ± 0.46	39.77 ± 0.46	39.45 ± 0.45	39.29 ± 0.45
x1 = 0.7911	42.37 ± 0.49	41.9 ± 0.49	41.55 ± 0.48	41.32 ± 0.48
x1 = 0.842	43.32 ± 0.51	42.81 ± 0.5	42.4 ± 0.49	42.1 ± 0.49
x1 = 0.8754	43.91 ± 0.51	43.36 ± 0.51	42.91 ± 0.5	42.54 ± 0.5
x1 = 1	45.82 ± 0.54	45.09 ± 0.54	44.41 ± 0.53	43.71 ± 0.52

CCCC[n+]1ccccc1.F[B-](F)(F)F [1-butylpyridinium tetrafluoroborate]
[1]
Conditions	surface tension liquid-gas [mN/m]
293.15 K	46.9 ± 0.56
303.15 K	46.3 ± 0.55
313.15 K	45.69 ± 0.54
323.15 K	45.11 ± 0.54

CCCC[n+]1ccccc1.F[B-](F)(F)F [1-butylpyridinium tetrafluoroborate] + CCO
surface tension liquid-gas [mN/m], [2]
Conditions	303.15 K	313.15 K	323.15 K
x1 = 0.05	22.16 ± 0.26	21.51 ± 0.25	20.72 ± 0.24
x1 = 0.1021	22.72 ± 0.26	22.17 ± 0.26	21.41 ± 0.25
x1 = 0.1959	23.54 ± 0.27	23.25 ± 0.27	22.74 ± 0.26
x1 = 0.2902	24.72 ± 0.29	24.48 ± 0.28	24.26 ± 0.28
x1 = 0.3922	26.57 ± 0.31	26.27 ± 0.3	26.25 ± 0.3
x1 = 0.4914	28.89 ± 0.33	28.68 ± 0.33	28.54 ± 0.33
x1 = 0.5953	31.85 ± 0.37	31.63 ± 0.37	31.45 ± 0.36
x1 = 0.6898	35.04 ± 0.41	34.75 ± 0.4	34.53 ± 0.4
x1 = 0.7903	38.62 ± 0.45	38.26 ± 0.45	38.01 ± 0.44
x1 = 0.8879	42.28 ± 0.5	41.85 ± 0.49	41.5 ± 0.49
x1 = 0.94	44.15 ± 0.52	43.62 ± 0.52	43.24 ± 0.51
x1 = 1	46.3 ± 0.55	45.69 ± 0.54	45.11 ± 0.54

CCCC[n+]1ccccc1.F[B-](F)(F)F [1-butylpyridinium tetrafluoroborate] + CO
surface tension liquid-gas [mN/m], [2]
Conditions	293.15 K	303.15 K	313.15 K	323.15 K
x1 = 0.025	23.33 ± 0.27	22.59 ± 0.26	21.77 ± 0.25	20.96 ± 0.24
x1 = 0.0527	24.1 ± 0.28	23.41 ± 0.27	22.64 ± 0.26	21.9 ± 0.25
x1 = 0.0987	25.37 ± 0.29	24.73 ± 0.28	24.04 ± 0.28	23.38 ± 0.27
x1 = 0.1944	27.89 ± 0.32	27.37 ± 0.31	26.74 ± 0.3	26.23 ± 0.3
x1 = 0.2933	30.44 ± 0.34	29.92 ± 0.34	29.38 ± 0.33	28.96 ± 0.33
x1 = 0.3978	33.04 ± 0.37	32.55 ± 0.37	32.07 ± 0.36	31.7 ± 0.36
x1 = 0.4934	35.37 ± 0.4	34.9 ± 0.4	34.46 ± 0.39	34.11 ± 0.39
x1 = 0.5891	37.67 ± 0.43	37.21 ± 0.42	36.77 ± 0.42	36.46 ± 0.42
x1 = 0.6784	39.74 ± 0.46	39.26 ± 0.45	38.82 ± 0.45	38.5 ± 0.44
x1 = 0.7864	42.16 ± 0.49	41.64 ± 0.48	41.17 ± 0.48	40.81 ± 0.47
x1 = 0.8724	44.06 ± 0.52	43.5 ± 0.51	42.97 ± 0.5	42.54 ± 0.5
x1 = 0.93	45.33 ± 0.53	44.76 ± 0.53	44.17 ± 0.52	43.69 ± 0.52
x1 = 1	46.9 ± 0.56	46.3 ± 0.55	45.69 ± 0.54	45.11 ± 0.54

CCC[n+]1ccccc1.F[B-](F)(F)F [1-propylpyridinium tetrafluoroborate]
[1]
Conditions	surface tension liquid-gas [mN/m]
293.15 K	51.29 ± 0.61
303.15 K	50.51 ± 0.6
313.15 K	49.79 ± 0.59
323.15 K	49.03 ± 0.58

CCC[n+]1ccccc1.F[B-](F)(F)F [1-propylpyridinium tetrafluoroborate] + CO
surface tension liquid-gas [mN/m], [2]
Conditions	293.15 K	303.15 K	313.15 K	323.15 K
x1 = 0.0478	23.84 ± 0.27	23.07 ± 0.27	22.2 ± 0.26	21.35 ± 0.25
x1 = 0.0964	25.01 ± 0.29	24.31 ± 0.28	23.48 ± 0.27	22.68 ± 0.26
x1 = 0.1993	27.35 ± 0.31	26.84 ± 0.31	26.18 ± 0.3	25.55 ± 0.29
x1 = 0.3036	29.78 ± 0.34	29.49 ± 0.33	28.99 ± 0.33	28.48 ± 0.32
x1 = 0.3934	32.15 ± 0.36	31.84 ± 0.36	31.46 ± 0.36	31.02 ± 0.35
x1 = 0.4987	35.23 ± 0.4	34.81 ± 0.4	34.46 ± 0.39	34.04 ± 0.39
x1 = 0.5926	38.18 ± 0.44	37.63 ± 0.43	37.21 ± 0.43	36.76 ± 0.42
x1 = 0.6946	41.44 ± 0.48	40.83 ± 0.47	40.29 ± 0.46	39.77 ± 0.46
x1 = 0.7836	44.31 ± 0.51	43.66 ± 0.51	43.04 ± 0.5	42.45 ± 0.49
x1 = 0.8822	47.5 ± 0.55	46.81 ± 0.55	46.15 ± 0.54	45.44 ± 0.53
x1 = 0.945	49.5 ± 0.58	48.78 ± 0.57	48.1 ± 0.57	47.36 ± 0.56
x1 = 1	51.29 ± 0.61	50.51 ± 0.6	49.79 ± 0.59	49.03 ± 0.58

CCO [ethanol]
[1]
Conditions	surface tension liquid-gas [mN/m]
293.15 K	22.28 ± 0.26
303.15 K	21.49 ± 0.25
313.15 K	20.66 ± 0.24
323.15 K	19.84 ± 0.23

CCO [ethanol] + CCCC[n+]1ccc(C)cc1.F[B-](F)(F)F
[2], x2 = 0
Conditions	surface tension liquid-gas [mN/m]
293.15 K	22.28 ± 0.26
303.15 K	21.49 ± 0.25
313.15 K	20.66 ± 0.24
323.15 K	19.84 ± 0.23

CCO [ethanol] + CCCC[n+]1cccc(C)c1.F[B-](F)(F)F
[2], x2 = 0
Conditions	surface tension liquid-gas [mN/m]
293.15 K	22.28 ± 0.26
303.15 K	21.49 ± 0.25
313.15 K	20.66 ± 0.24
323.15 K	19.84 ± 0.23

CCO [ethanol] + CCCC[n+]1ccccc1.F[B-](F)(F)F
[2], x2 = 0
Conditions	surface tension liquid-gas [mN/m]
303.15 K	21.49 ± 0.25
313.15 K	20.66 ± 0.24
323.15 K	19.84 ± 0.23

CO [methanol]
[1]
Conditions	surface tension liquid-gas [mN/m]
293.15 K	22.6 ± 0.26
303.15 K	21.81 ± 0.25
313.15 K	20.93 ± 0.24
323.15 K	20.05 ± 0.23

CO [methanol] + CCCC[n+]1ccc(C)cc1.F[B-](F)(F)F
[2], x2 = 0
Conditions	surface tension liquid-gas [mN/m]
293.15 K	22.6 ± 0.26
303.15 K	21.81 ± 0.25
313.15 K	20.93 ± 0.24
323.15 K	20.05 ± 0.23

CO [methanol] + CCCC[n+]1cccc(C)c1.F[B-](F)(F)F
[2], x2 = 0
Conditions	surface tension liquid-gas [mN/m]
293.15 K	22.6 ± 0.26
303.15 K	21.81 ± 0.25
313.15 K	20.93 ± 0.24
323.15 K	20.05 ± 0.23

CO [methanol] + CCCC[n+]1ccccc1.F[B-](F)(F)F
[2], x2 = 0
Conditions	surface tension liquid-gas [mN/m]
293.15 K	22.6 ± 0.26
303.15 K	21.81 ± 0.25
313.15 K	20.93 ± 0.24
323.15 K	20.05 ± 0.23

CO [methanol] + CCC[n+]1ccccc1.F[B-](F)(F)F
[2], x2 = 0
Conditions	surface tension liquid-gas [mN/m]
293.15 K	22.6 ± 0.26
303.15 K	21.81 ± 0.25
313.15 K	20.93 ± 0.24
323.15 K	20.05 ± 0.23
